Columns and labels:
E. cloacae ATCC23355 = test: E-test MIC with or without NAB7061 (4 μg/ml), Mueller-Hinton agar; assay type: cell-based, Enterobacter cloacae
Experimental: (§1) MICs were determined by using E-strips (Biodisk Ltd., Solna, Sweden) according to the manufacturer's instructions.
(§2) The strains originated from ATCC (11 strains), CCUG (11 strains), and NCTC (The National Collection of Type Cultures, Colindale, U.K.; 2 strains). Eight strains (the F-strains) were purchased from Mobidiag Ltd., Helsinki, Finland.

[1] = test system: Acinetobacter baumannii ATCC 19606; test: Growth inhibition around wells on LB agar plates; assay type: cell-based; conditions: A. baumannii ATCC 19606
Experimental: (§3) From an overnight-grown culture of IH3080 on LB agar, a suspension of approx. 10^8 cells/ml was prepared in 0.9% NaCl. Aliquots of this suspension were then pipetted on the agar plates and the plates were gently shaken to spread the suspension evenly on the entire surface of the plate. Thereafter, the unabsorbed part of the suspension was removed by using a Pasteur pipette. After the surface had dried, small wells (diameter, 2 mm) were drilled on the plates (five wells per plate) by using a sterile sharp-edged narrow metal tube, single-use pipette tip, and vacuum suction. An alternative method used a swab to spread the inoculum. […] Controls included 0.9% NaCl solution without the compound to be tested. The plates were then incubated for 18 h at 37° C. whereafter the diameters of growth inhibition zones around each well were measured; the diameter of the well itself was not reduced. Finally, the diameters were converted to surface areas of growth inhibition (in square mm).
(§4) Direct antibacterial activity of sixteen NAB compounds against Acinetobacter baumannii ATCC 19606 and Pseudomonas aeruginosa ATCC 27853 was tested by using the susceptibility determination method described in Example 2. Five compounds (NAB7062, NAB734, NAB737, NAB739, and NAB740) had very notable activity against A. baumannii. […] The antibacterial activity of NAB739 and NAB740 were as strong as or even stronger than that of polymyxin B.

[2] = test system: Pseudomonas aeruginosa ATCC 27853; test: Growth inhibition around wells on LB agar plates; assay type: cell-based; conditions: Ps. aeruginosa ATCC 27853
Experimental: (§5) From an overnight-grown culture of IH3080 on LB agar, a suspension of approx. 10^8 cells/ml was prepared in 0.9% NaCl. Aliquots of this suspension were then pipetted on the agar plates and the plates were gently shaken to spread the suspension evenly on the entire surface of the plate. Thereafter, the unabsorbed part of the suspension was removed by using a Pasteur pipette. After the surface had dried, small wells (diameter, 2 mm) were drilled on the plates (five wells per plate) by using a sterile sharp-edged narrow metal tube, single-use pipette tip, and vacuum suction. An alternative method used a swab to spread the inoculum. Samples (4 μl and 10 μl) of the peptide solution in 0.9% NaCl (at concentrations of 1 μg/ml and 0.1 μg/ml) were then pipetted to the wells and the sample fluids were allowed to absorb. Controls included 0.9% NaCl solution without the compound to be tested. The plates were then incubated for 18 h at 37° C. whereafter the diameters of growth inhibition zones around each well were measured; the diameter of the well itself was not reduced. Finally, the diameters were converted to surface areas of growth inhibition (in square mm).
as §4

[3] = test system: Ps. aeruginosa ATCC 27853; test: Sensitization to rifampin: growth inhibition around wells on LB plates containing rifampin; assay type: cell-based, Pseudomonas aeruginosa; conditions: 4 μg
E. coli IH3080 [4] = test: as above; assay type: cell-based, Escherichia coli; conditions: 4 μg of compound
Experimental: as §5

E. coli IH3080 [5] = test: Growth inhibition around wells on LB agar plates; assay type: cell-based, Escherichia coli
Experimental: Peptides synthesized in Example 1, all carrying at least two (2) but not more than three (3) positive charges, were studied for their ability to inhibit the growth of E. coli. This was tested employing LB agar (LB Agar Lennox, Difco, BD, Sparks, Md., U.S.A) plates. The indicator organism E. coli IH3080 (K1:O018) was an encapsulated strain originally isolated from a neonate suffering from meningitis (Vaara et al. 1984) and obtained from National Public Health Institute, Helsinki, Finland.
as §3

A. baumannii ATCC 19606 = test: Sensitization to rifampin: growth inhibition around wells on LB plates containing rifampin; assay type: cell-based, Acinetobacter baumannii; conditions: 4 μg
Ac. baumannii ATCC19606 = test: E-test MIC with or without NAB7061 (4 μg/ml), Mueller-Hinton agar; assay type: cell-based, Acinetobacter baumannii
Experimental: as §1, §2

Ac. baumannii F264 = test: as above; assay type: cell-based, Acinetobacter baumannii
Experimental: as §1, §2

Ac. baumannii F263 = test: as above; assay type: cell-based, Acinetobacter baumannii
Experimental: as §1, §2

E. coli IH3080 [6] = test: as above; assay type: cell-based, Escherichia coli
Experimental: as §1, §2

E. coli ATCC25922 = conditions: E. coli ATCC25922
Experimental: as §1, §2

K. pneumoniae ATCC13883 = conditions: K. pneumoniae ATCC13883
Experimental: as §1, §2

| Compound | Sensitization factor to antibiotic (MIC without / with 4 μg/ml of NAB 7061) (E. cloacae ATCC23355) | growth inhibition around a well ([1]; 4 μg) [square millimeters] | growth inhibition around a well ([1]; 10 μg) [square millimeters] | growth inhibition around a well ([2]; 4 μg) [square millimeters] | growth inhibition around a well ([2]; 10 μg) [square millimeters] | growth inhibition around a well in the presence of rifampin ([3]; rifampin 0 μg/ml) [square millimeters] | growth inhibition around a well in the presence of rifampin ([3]; rifampin 0.1 μg/ml) [square millimeters] | growth inhibition around a well in the presence of rifampin ([3]; rifampin 0.3 μg/ml) [square millimeters] | growth inhibition around a well in the presence of rifampin (E. coli IH3080 [4]; rifampin 0 μg/ml) [square millimeters] | growth inhibition around a well in the presence of rifampin (E. coli IH3080 [4]; rifampin 0.1 μg/ml) [square millimeters] | growth inhibition around a well in the presence of rifampin (E. coli IH3080 [4]; rifampin 1.0 μg/ml) [square millimeters] | growth inhibition around a well (E. coli IH3080 [5]; 4 μg of compound per well) [square millimeters] | growth inhibition around a well (E. coli IH3080 [5]; 10 μg of compound per well) [square millimeters] | growth inhibition around a well in the presence of rifampin (A. baumannii ATCC 19606; rifampin 0 μg/ml) [square millimeters] | growth inhibition around a well in the presence of rifampin (A. baumannii ATCC 19606; rifampin 0.1 μg/ml) [square millimeters] | growth inhibition around a well in the presence of rifampin (A. baumannii ATCC 19606; rifampin 0.3 μg/ml) [square millimeters] | other results |
| --- | --- | --- | --- | --- | --- | --- | --- | --- | --- | --- | --- | --- | --- | --- | --- | --- | --- |
| COc1c(N2C[C@@H]3CCCN[C@@H]3C2)c(F)cc2c(=O)c(C(=O)O)cn(C3CC3)c12 [Moxifloxacin] | 4 |  |  |  |  |  |  |  |  |  |  |  |  |  |  |  |  |
| OA-Thr-Abu-cy[Dab-Dab-DPhe-Leu-Dab-Dab-Leu-] [NAB 719] |  | 0 | 0 | 0 | 0 | 0 | 0 | 7 | 7 | 79 | 95 | 7 | 50 | 0 | 154 | 133 |  |
| OA-Thr-Dab-cy[Dab-Dab-DPhe-Leu-Dab-Abu-Thr-] [NAB 717] |  | 0 | 0 | 0 | 0 | 0 | 0 | 0 | 0 | 71 | 95 | 0 | 0 | 0 | 0 | 50 |  |
| C[C@@H](O)[C@H]1C(=O)N2C(C(=O)O)=C(SCCN=CN)C[C@H]12 [imipenem] |  |  |  |  |  |  |  |  |  |  |  |  |  |  |  |  | MIC of carbapenem at NAB 7061 concn 0 μg/ml (Ac. baumannii ATCC19606; A. baumannii ATCC19606, absence of NAB 7061): 0.38 µg/mL; MIC of antibiotic in the presence of 4 μg/ml of NAB 7061 (Ac. baumannii ATCC19606; Ac. baumannii ATCC19606): 0.38 µg/mL; MIC of carbapenem at NAB 7061 concn 0 μg/ml (Ac. baumannii F264; A. baumannii F264, absence of NAB 7061): 24 µg/mL; MIC of antibiotic in the presence of 4 μg/ml of NAB 7061 (Ac. baumannii F264; Ac. baumannii F264): 6 µg/mL; MIC of carbapenem at NAB 7061 concn 0 μg/ml (Ac. baumannii F263; A. baumannii F263, absence of NAB 7061): >32 µg/mL; MIC of antibiotic in the presence of 4 μg/ml of NAB 7061 (Ac. baumannii F263; Ac. baumannii F263): 8 µg/mL |
| COc1cc(Cc2cnc(N)nc2N)cc(OC)c1OC [Trimetoprim] | 3 |  |  |  |  |  |  |  |  |  |  |  |  |  |  |  | Sensitization factor to antibiotic (MIC without / with 4 μg/ml of NAB 7061) (E. coli IH3080 [6]): 3; Sensitization factor to antibiotic (MIC without / with 4 μg/ml of NAB 7061) (E. coli ATCC25922): 4; Sensitization factor to antibiotic (MIC without / with 4 μg/ml of NAB 7061) (K. pneumoniae ATCC13883): 2 |

From patent publication US8329645B2, “Polymyxin derivatives and uses thereof” (priority 2008, dated 2012)
